According to paper PMC10056899, “Neuroprotective and Antiherpetic Properties of Polyphenolic Compounds from Maackia amurensis Heartwood” (Molecules, 2023):
In brackets after ≈: the same amount, converted by molar mass. Several values for one entry are separate records, joined by “and”; a condition that tells them apart may be missing. Equal entries are not always repeated. Where two headings read alike, the source gives them in different places.

How the values were obtained:
[1] = tested on: HSV-1; test: Anti-HSV-1 activity, HSV-1 DNA level by real-time PCR (RT-PCR); assay type: cell-based, HSV-1 strain L2; conditions: 5 µg/mL, simultaneous treatment, 48 h; for 1, 4 and Maxar given on average
Description: The anti-HSV-1 activity of the polyphenolic compounds from M. amurensis was also studied using the real-time PCR (RT-PCR) technique (Figure 5 and Table S69, Supplementary Data). Vero cells were simultaneously infected with 100 TCD50/mL HSV-1 and treated with polyphenolic compounds 1–6 at concentrations of 50 and 5 μg/mL. After 48 h of cell incubation, viral DNA was extracted from the supernatants, and the relative level of HSV-1 DNA was determined using RT-PCR. The effect of stilbenes on the relative level of viral DNA was assessed by 2^−ΔCt method and reported as fold reduction relative to virus control, to which the value of 1.0 was assigned.
For the viral DNA extraction assay, Vero cells grown in 96-well plates were infected with HSV-1 and simultaneously treated with polyphenolic compounds and incubated at 37 °C in a CO2-incubator for 48 h. After incubation, the culture media and the cells scraped from the plate were transferred to centrifuge tubes. The cell debris was removed by centrifugation at 300× g for 10 min. Then, supernatant was collected and kept at −20 °C. The HSV-1 DNA was extracted from supernatant by using the AmpliSens® DNA-sorb-AM (K1-12-100-CE) nucleic acid extraction kit (Moscow, Russia) according to the manufacturer′s instructions. […]
The DNA HSV was detected in the obtained DNA samples using the AmpliSens® HSV I, II-FRT-100F PCR kit (Moscow, Russia) on a real-time PCR instrument Rotor-Gene Q (Qiagen, Hilden, Nordrhein-Westfalen, Germany) according to the manufacturer′s instructions. […] In the real-time PCR, the amplified product is detected with the use of fluorescent dyes. […] The threshold cycle number, Ct, was measured as the PCR cycle, where the amount of amplified target reached the threshold value. The reduction in the HSV-1 DNA levels in culture supernatants was assessed by the change in the threshold cycle (ΔCt) (Equation (4)):(4) ΔCt=Cttv−Ctcv where: • Cttv is the average Ct value for the infected samples after treatment with polyphenolic compounds; • Ctcv corresponds to the average Ct value for the virus control. […]

[2] = tested on: HSV-1; test: Anti-HSV-1 activity, cytopathic effect (CPE) inhibition assay in Vero cells; assay type: cell-based, HSV-1 strain L2; conditions: for IC50: read-out: IC50 (CPE assay); for SI = CC50/IC50: Vero cells, HSV-1
Description: (§1) The HSV-1 strain L2 and Vero cell culture (kidney epithelial cells of the African green monkey Chlorocebus sp.) were obtained from the N.F. Gamaleya Federal Research Centre for Epidemiology and Microbiology (Moscow, Russia). HSV-1 was grown in Vero cells, using Dulbecco′s Modified Eagle′s Medium (DMEM, Biolot, St. Petersburg, Russia) supplemented with 10% fetal bovine serum (FBS, Biolot, St. Petersburg, Russia) and 100 U/mL of gentamycin (Dalkhimpharm, Khabarovsk, Russia), at 37 °C in a CO2 incubator. In the maintenance medium, the FBS concentration was decreased to 1%.
(§2) The tested compounds were dissolved in DMSO (Sigma, St. Louis, MO, USA) at a concentration 10 mg/mL and stored at −20 °C. For cytotoxicity and anti-HSV-1 activity determination, the stock solutions were diluted with DMEM so that the final concentration of DMSO was 0.5%.
The anti-HSV-1 activity of stilbenes was evaluated using cytopathic effect (CPE) inhibition assay in Vero cells. We infected the monolayer of cells grown in 96-well plates (1 × 10^4 cells/well) with 100 µL/well of virus suspension (100 TCD50/mL) and we simultaneously treated it with stilbenes 1–6 (100 µL/well) at various concentrations (from 1 to 400 μg/mL) for one hour at 37 ◦C. After virus absorption, we removed the mixture of virus and stilbenes, washed the cells, and added the maintenance medium with 1% FBS. […] We used MTT assay to evaluate the antiviral activity of stilbenes. The viral inhibition rate (IR, %) was calculated according to Equation (3):(3) IR, %=Atv−Acv/Acd−Acv×100, where: • Atv is the absorbance of cells infected with virus and treated with a polyphenolic compound; • Acv is the absorbance of the untreated virus-infected cells; • Acd is the absorbance of control (untreated and non-infected) cells.
The selectivity index (SI) was calculated as the ratio of CC50 to IC50. Experiments were repeated three times.

[3] = Cytotoxicity against Vero cells (MTT assay); assay type: cell-based; conditions: African green monkey (Chlorocebus sp.)
Description: as §1, §2
The cytotoxicity evaluation of the studied compounds was performed using the MTT assay, as described previously. In brief, confluent Vero cells in 96-well microplates (1 × 10^4 cells/well) were incubated with tested compounds at various concentrations (1–500 μg/mL) at 37 °C for 48 h (5% CO2). Untreated cells were used as controls. Then, MTT solution (methylthiazolyltetrazolium bromide, Sigma, St. Louis, MO, USA) was added to cells at a concentration of 5 mg/mL and the cells were incubated at 37 °C for 2 h. After dissolution of formazan crystals, optical densities were read at 540 nm (Labsystems Multiskan RC, Vantaa, Finland). […] [42]. Experiments were performed in triplicate and repeated three times.

[4] = DPPH radical scavenging assay; conditions: 20 min; for IC50: read-out: DPPH Scavenging Effect IC50
Description: The DPPH (2,2-diphenyl-1-picrylhydrazyl) scavenging effect of polyphenolic compounds 1-6 from M. amurensis heartwood was evaluated as described previously in [40]. Stilbenes were added to DPPH solution in MeOH (10^−4 M) at a concentration range from 1 to 34 µM. The mixture was kept in the dark at room temperature for 20 min. Then, we measured the absorbance at 517 nm using a Shimadzu UV 1240 spectrophotometer (Shimadzu, Kyoto, Japan). The DPPH radical-scavenging effect (%) of the stilbenes was calculated using Equation (1): (1) DPPH scavenging effect, %=A0−Ax/A0×100, where: • A0 is the absorbance of DPPH solution without polyphenolic compounds (blank sample); • Ax is the absorbance of DPPH solution in the presence of different concentrations of polyphenolic compounds.
Quercetin and ascorbic acid were used as reference compounds. All experiments were performed in triplicate. The half maximal inhibitory concentration (IC50) for polyphenolic compounds was calculated by plotting the DPPH scavenging effect (%) against the concentrations of polyphenolic compounds. IC50 values are given as the mean ± SEM.

[5] = Ferric reducing antioxidant power (FRAP) assay; conditions: 4 min, pH 3.6
Description: The FRAP assay was carried out as described in [41]. We prepared FRAP reagent by mixing 2.5 mL of TPTZ (2,4,6-tris(2-pyridyl)-s-triazine) solution (10 mM) in 40 mM HCl and […] of FeCl3 solution (20 mM) in acetate buffer solution (300 mM, pH 3.6). Then, we added stilbenes 1–6 to 3 mL of FRAP reagent at concentrations from 1 to 34 µM. The mixture was kept in the dark at room temperature for 4 min. Then, we measured the absorbance at 595 nm using a Shimadzu UV 1240 spectrophotometer. Equation (2) was used to calculate the FRAP values of stilbenes 1–6:(2) FRAP=CFe/Cx, where: • CFe is the concentration of Fe^2+ (µM) formed in the reaction; • Cx is the concentration of polyphenolic compounds in the reacting mixture.
The concentration of Fe^2+ (µM) formed in the reaction was determined using the calibration curve obtained for different concentrations of FeSO4·7H2O.

[6] = tested on: PQ-treated Neuro-2a cells; test: PQ-induced neurotoxicity model, cell viability (MTT assay); assay type: cell-based, murine; conditions: 10, 1, 0.1 μM, PQ 1 mM
Description: After 24 h of adhesion, we treated Neuro-2a cells (1 × 10^4 cells/well) with stilbenes (0.01–10 μM) for 1 h and added 1 mM of PQ (Sigma-Aldrich, St. Louis, MO, USA). Cells incubated without PQ or with PQ were used as positive and negative control, respectively. After 24 h, we measured the cell viability using MTT assay. The results are presented as percentages of the positive control value.

[7] = tested on: PQ-treated Neuro-2a cells; test: Intracellular ROS level in PQ-treated cells (H2DCF-DA); assay type: cell-based, murine; conditions: 10, 1, 0.1 μM
Description: After 24 h of adhesion, Neuro-2a cells (1 × 10^4 cells/well) were incubated with stilbenes (0.01–10 µM) for 1 h. After that, we added PQ (1 mM) to each well and incubated the cells for 3 h. To study ROS formation, we added 20 µL of 2,7-dichlorodihydrofluorescein diacetate solution ([…], H2DCF-DA, Molecular Probes, Eugene, OR, USA) to each well, so that the concentration was 10 µM, and kept the microplate in a CO2–incubator for additional 30 min at 37 °C.

[8] = tested on: PQ-treated Neuro-2a cells; test: Mitochondrial membrane potential in PQ-treated cells (TMRM); assay type: cell-based, murine; conditions: 10 μM
Description: […] Then, we added PQ (500 μM) and kept the cell suspension in a CO2-incubator for 1 h. Cells incubated without PQ and stilbenes and with PQ only were used as positive and negative control, respectively. We added the tetramethylrhodamine methyl (TMRM) (Sigma-Aldrich, St. Louis, MO, USA) solution (500 nM) to each well and kept the cells for 30 min in a CO2-incubator at 37 °C. The intensity of fluorescence was measured with a PHERAstar […] reader (BMG Labtech, Ortenberg, Germany) at λex = 540 nm and λem = 590 nm. We processed the data by MARS Data Analysis v. 3.01R2 (BMG Labtech, Ortenberg, Germany) and presented the results as percentages of the positive control value.

[9] = Human alphaherpesvirus 1, added to Vero cells simultaneously with the virus, 100 TCD50/mL

Question: What does the source list for `Nc1nc2c(ncn2COCCO)c(=O)[nH]1` [Acyclovir, reference compound]?
Answer: Reduction of relative level of HSV-1 DNA relative to virus control [1]: 4 log10; IC50 [2, 9]: 2.1 µg/mL and 9.3 µM; SI = CC50/IC50 [2]: 430; CC50 at 48 h [3]: > 1000 µg/mL and > 4 mM

Question: With `O=C1O[C@H]([C@@H](O)CO)C(O)=C1O` [Ascorbic acid, reference compound] as the compound, how does the “DPPH Scavenging Effect IC50” value [4] read?
Answer: 5.83 ± 0.49 µg

Question: And the IC50 [4]?
Answer: 33.1 ± 2.8 µM

Question: What about the “FRAP CFe2+(µM)/Cpolyphenolic compound (µM)” value [5] of the same compound?
Answer: 3.58 ± 0.29 CFe2+(µM)/Cpolyphenolic compound (µM)

Question: And the “FRAP CFe2+(µM)/Cpolyphenolic compound (μkg/mL)” value [5]?
Answer: 20.34 ± 0.16 CFe2+(µM)/Cpolyphenolic compound (μkg/mL)

Question: What does the source list for `Oc1cc(O)cc(/C=C/c2ccc(O)c(O)c2)c1` [Compound 2, piceatannol]?
Answer: DPPH Scavenging Effect IC50 [4]: 1.05 ± 0.12 µg; IC50 [4]: 4.3 ± 0.5 µM; IC50 [2, 9]: 22 µg/mL and 90.2 µM; SI = CC50/IC50 [2]: 11.4 ± 1.4; CC50 at 48 h [3]: 250 ± 30 µg/mL (≈ 1020 µM); Effect on viability of PQ-treated cells [6]: did not show any effect; FRAP CFe2+(µM)/Cpolyphenolic compound (µM) [5]: 15.71 ± 1.43 CFe2+(µM)/Cpolyphenolic compound (µM); FRAP CFe2+(µM)/Cpolyphenolic compound (μkg/mL) [5]: 64.38 ± 5.86 CFe2+(µM)/Cpolyphenolic compound (μkg/mL)

Question: With `COc1ccc(-c2coc3c4c(ccc3c2=O)OC(c2cc(O)cc(O)c2)C(c2ccc(O)c(O)c2)O4)cc1` (stereo not drawn) [Compound 5, maackiasine] as the compound, how does the “DPPH Scavenging Effect IC50” value [4] read?
Answer: 1.32 ± 0.16 µg

Question: And the IC50 [4]?
Answer: 2.5 ± 0.3 µM

Question: What about the IC50 ([2]; Human alphaherpesvirus 1, Vero) of the same compound?
Answer: 23.7 µg/mL and 45 µM

Question: What about the “SI = CC50/IC50” value [2] of the same compound?
Answer: 6.6 and 6.6 ± 0.8

Question: And the CC50 at 48 h [3]?
Answer: 156 µg/mL and 297 µM

Question: And the “Effect on viability of PQ-treated cells” value [6]?
Answer: did not show any effect

Question: And the “FRAP CFe2+(µM)/Cpolyphenolic compound (µM)” value [5]?
Answer: 2.50 ± 0.38 CFe2+(µM)/Cpolyphenolic compound (µM)

Question: What about the “FRAP CFe2+(µM)/Cpolyphenolic compound (μkg/mL)” value [5] of the same compound?
Answer: 4.75 ± 0.72 CFe2+(µM)/Cpolyphenolic compound (μkg/mL)

Question: What does the source list for `COc1cc([C@@H]2c3c(O)cc(O)cc3[C@@H]3[C@H]2CO[C@@H]3c2ccc(O)c(O)c2)cc(OC)c1O` [Compound 6, maackolin]?
Answer: DPPH Scavenging Effect IC50 [4]: 0.90 ± 0.14 µg; IC50 [4]: 2 ± 0.3 µM; Effect on ROS level in PQ-treated cells [7]: did not decrease the ROS level; IC50 ([2]; Human alphaherpesvirus 1, Vero): 40.2 µg/mL and 88.9 µM; SI = CC50/IC50 [2]: 6.4 and 6.4 ± 0.8; CC50 at 48 h [3]: 256 µg/mL and 567 µM; Increase of mitochondrial membrane potential compared to PQ-treated cells [8]: 9%; FRAP CFe2+(µM)/Cpolyphenolic compound (μkg/mL) [5]: 51.11 ± 5.86 CFe2+(µM)/Cpolyphenolic compound (μkg/mL)

Question: For `O=c1c(O)c(-c2ccc(O)c(O)c2)oc2cc(O)cc(O)c12` [Quercetin, reference compound], which “DPPH Scavenging Effect IC50” value [4] is on record?
Answer: 2.81 ± 0.12 µg

Question: What about the IC50 [4] of the same compound?
Answer: 9.3 ± 0.4 µM

Question: What about the “FRAP CFe2+(µM)/Cpolyphenolic compound (µM)” value [5] of the same compound?
Answer: 5.53 ± 0.55 CFe2+(µM)/Cpolyphenolic compound (µM)

Question: What about the “FRAP CFe2+(µM)/Cpolyphenolic compound (μkg/mL)” value [5] of the same compound?
Answer: 18.3 ± 1.82 CFe2+(µM)/Cpolyphenolic compound (μkg/mL)
